Assay results published in patent US20150150892A1, “METHODS AND PRODUCTS RELATED TO LUNG CANCER” (Massachusetts Institute of Technology, priority 2012, published 2015).

What was measured:
NF-κB target genes = assay: Quantitative PCR of NF-κB target genes in KP cells; assay type: cell-based, mouse
Description: FIG. 1. Bortezomib inhibits NF-κB signaling and induces apoptosis in murine lung adenocarcinoma cell lines. (1A) reduction of nuclear p65 level by bortezomib. Two KP (KrasLSL-G12D/wt;p53flox/flox) cell lines (KP1 and KP2) were treated with 5 nM bortezomib (BZ) or vehicle control (ctrl) for 24 hours. Nuclear (N) and cytoplasmic (C) fractions of protein lysates were immunoblotted with the indicated antibodies. NEMO and Parp serve as cytoplasmic and nuclear loading controls, respectively. (1B) quantitative PCR analysis of a subset of NF-κB target genes in 5 nM bortezomib (BZ)-treated KP cells at the indicated time points. Vehicle control is set to 1. (1C) apoptosis in KP and KP^M (KrasLSL-G12D/wt;p53R127H/−) cells induced by bortezomib. Cells were pre-treated with 5 nM bortezomib for 24 hours, and protein lysates were immunoblotted with CC3 and tubulin antibodies. (1D) quantification of cell death in bortezomib-treated cells. Cells were treated with the indicated concentrations of bortezomib for 24 hours, and dead cells were quantified by Trypan blue staining. Error bars are SD (n=3).
FIG. 7: The NF-κB inhibitor Bay-117082 leads to lung tumor regression in vivo. (7A) quantitative PCR analysis of NF-κB target gene expression in KP cells treated with 10 μM Bay-117082 for indicated hours. Error bars are SD (n=3). (7B) Bay-117082 treatment leads to lung tumor regression and delays tumor progression in the orthotopic lung tumor model. A total of 50,000 luciferase-tagged KP cells were transplanted into recipient mice (n=6), and treatment was started at 19 days after transplantation (set at D0). Mice were treated with vehicle control or 10 mg/kg Bay-117082 by i.p. injection, and imaged at the indicated time points. Arrows indicate Bay-117082 injections. (7C) Bay-117082 prolongs survival in the KP model (n=6; P=0.008). “i.p. dosing” indicates treatment with 3 doses per week.
(§1) RNA was purified using TRIzol (Invitrogen), according to the manufacturer's instructions. One microgram of RNA was reverse transcribed using the High-Capacity cDNA Reverse Transcription Kit (Applied Biosystems). Real-time PCR (quantitative PCR) amplification was performed using Taqman probes (Applied Biosystems). Data were normalized to the Gapdh (mouse) or GAPDH (human) levels.

KP and KP^M cell lines = assay: Cell viability assay (Cell Titer Aqueous Kit); assay type: cell-based, mouse; conditions: increasing doses, 24 hours, KP and KP^M vs 3TZ and LKR13 cells
Description: FIG. 2: Bortezomib sensitivity correlates with basal NF-κB activity in KP lung adenocarcinoma cell lines. […] 3TZ, diamond; LKR13, triangle; KP, solid lines; KPM, dashed lines. Error bars are SD (n=3). (2B) lung cancer cell lines with high basal NF-κB activity were sensitive to bortezomib. NF-κB p65 DNA-binding activity was determined by ELISA from nuclear extracts of KP cell lines and LKR13 cells (set as 1). Relative viability was measured after 5 nM bortezomib treatment, as in 2A. FIG. 17: Bay-117082 induces cell death In KP cells. […] (17B) Bay-117082 induces apoptosis in KP cells. Cells were treated with 10IJM Bay-117082 for 48 hours. […] Cell culture conditions were as described recently (30).

[1] = test system: KrasLSL-G12D/wt (K) lung tumors; assay: MicroCT lung tumor volume in K mice; assay type: in vivo, mouse; conditions: single 1 mg/kg dose, 20 weeks post infection
Excerpt: FIG. 3: Bortezomib induces acute lung tumor regression in KrasLSL-G12D/wt;p53flox/flox (KP) mice, but not in KrasLSL-G12D/wt (K) mice. (3A and 3C) representative microCT images (n=6) of KP (3A) and K (3C) lung tumors prior to pre-treatment (D0) and 4 days (D4) after a single dose of vehicle control or bortezomib. (3 B and 3D) Quantification of tumor volume change (D4 compared with D0) in control- and bortezomib-treated mice. Each bar represents an individual tumor. P<10^−6 in KP mice (3B); P>0.05 in K mice (3D).
The Massachusetts Institute of Technology (Cambridge, Mass.) Institutional Animal Care and Use Committee approved all animal studies and procedures. To initiate lung tumors, cohorts of K or KP mice of 129svJae background were infected with 2.5×10^7 plaque-forming units of Adeno-Cre (University of Iowa) by intranasal inhalation, as described previously (2, 28). Mice were given bortezomib (LC Labs) in PBS [0.5% dimethylsulfoxide (DMSO)] at 1 mg/kg body weight i.v., as indicated. […]
At indicated time points, mice were scanned for 15 min under isoflurane anesthesia, using a small animal eXplore Locus microCT (GE Healthcare) at 45-μm resolution, 80 kV, with 450-mA current (47). […] Mice were imaged for 60 seconds, and signals in the lung were quantified using Xenogen software. […]

[2] = test system: NF-κB target genes regulating apoptosis and survival; assay: QPCR of NF-κB targets in Bortezomib-resistant KP cell line; assay type: cell-based, mouse; conditions: 5 nM Bortezomib, 24 hours
Description: A representative resistant cell line was treated with control or 5 nM Bortezomib for 24 hours. Gene expression level was measured by QPCR and normalized to control-treated cells (set to 1). Error bars are s.d. (n=3).
as §1

[3] = test system: KrasL^St-G12Dwt (low NF-κB) mice; assay: FIG. 19 study, mice with low NF-κB; assay type: in vivo, mouse; conditions: 1 mg/kg IV bortezomib
Description: FIG. 19 is a schetaic diagram showing the experimental conditions and a set of graphs showing the results. Two sets of mice were treated with […] IV bortezomib, Kras^G120;p53^fl/fl (high NF-κB, top panel) or KrasL^St-G12Dwt (low NF-κB, bottom panel). […] The relapsed tumors have high Hmcgs2.
Mice having either high or low levels of NF-κB were treated with […] IV bortezomib and examined for tumor progression, apoptosis and survival. The mice are Kras^G120;p53^fl/fl (high NF-κB) or KrasL^St-G12Dwt (low NF-κB). […] The relapsed tumors have high Hmcgs2.

[4] = cited from earlier work
[5] = 5 nM bortezomib, time course, KP cells

CC(C)C[C@H](NC(=O)[C@H](Cc1ccccc1)NC(=O)c1cnccn1)B(O)O [bortezomib, N-(2-pyrazine) carbonyl-L-phenylalanine-L-leucine boronic acid]
I16 mRNA level (NF-κB target genes; 5 nM bortezomib, KP cells): increased | expression of inflammation NF-κB targets I16, Tnf, Mmp3 (NF-κB target genes; [5]): not reduced | expression of proliferation related NF-κB target genes c-Myc and Cyclin D1 (NF-κB target genes; [5]): reduced expression | expression of NF-κB-regulated antiapoptosis genes Bcl2, Bclx1, Birc2 (cIAP1), Birc5 (Survivin) (NF-κB target genes; 5 nM bortezomib, time course, KP cells, real-time PCR): consistently downregulated | Bcl2 and Myc inhibition, bortezomib compared with Bay-117082 (NF-κB target genes; KP cells in vitro, FIG. 1B and FIG. 7A): more robust | sensitivity in cell viability dose-response (KP and KP^M cell lines): higher sensitivity | tumor regression [1]: did not regress | NF-κB target genes regulating apoptosis and survival [2]: robust downregulation | tumor response, apoptosis and survival (FIG. 19) [3]: no tumor regression, apoptosis and no survival advantage | half-life in vivo [4]: short half-life
